Test results from patent publication US6635242B2, “Broad spectrum microbicidal and spermicidal compositions, devices, and methods” (The Pennsylvania State University, priority 1998, dated 2003).

How the values were obtained:
[1] = tested on: Bovine sperm; test: Bovine sperm motility following detergent addition; type: cell-based; parameters: key to Bovine Sperm Motility Following Detergent Addition: +++: Vigorous swimming; ++/−: Many swimmers/some dead; +/−: Occasional swimmer/most dead; −: All dead
Description: The following data represent an in vitro experiment to test the efficacy of SDS and other detergents as spermicidal agents. Frozen samples of bull semen were obtained, thawed and placed in a test tube. Aliquots were taken out and put in a separate test tube where they were mixed with detergent (SDS, C31G, N-9 or a mixture of SDS and N-9) to a final percent as listed in Tables 8 and 9 below. After mixing, the samples were immediately placed on a microscope slide and visually examined for sperm movement. The experiment was conducted one sample at a time so that the visual examination was conducted immediately after addition of detergent to the sample. As a result, indications in the table of complete inactivation indicate virtually instantaneous inactivation of the sperm. […] Occasional swimmers means very few, on the order of approximately 1% of the population of sperm present in the sample, indicating approximately 99% of the sperm were inactivated by the detergent.

[2] = tested on: CRPV; type: in vivo, cottontail rabbit papillomavirus; conditions: 0.05% SDS
[3] = tested on: HPV 11; test: Human papilloma induction: HPV 11 in human foreskin xenografts in athymic mice; type: in vivo, human papillomavirus
Description: Stocks of experimentally generated infectious HPV 11 were prepared and represented 10% w/v cell free extracts of virus in PBS. Undiluted aliquots of virus stocks (39 μl ) were mixed with a 40×solution of SDS 1 μl ), incubated at 37° C. for 10 min and immediately used to infect split thickness grafts of newborn human foreskin epithelium. Virus was not subsequently diluted. Control grafts were infected with untreated virus stock. Virus adsorption was for 1 hr at 37° C. […] Grafts were then transplanted beneath the renal capsule of athymic mice. Animals were maintained in isolator bubbles with antibiotic supplemented drinking water in the animal colony of the Hershey Medical Center. Three months following infection, animals were sacrificed, their kidneys were removed, and the xenografts were grossly examined. The remaining organs were examined for any apparent abnormalities and none were found. Portions of each graft were immediately fixed in 10% neutral-buffered formalin and processed by standard histologic techniques for staining with hematoxylin and eosin.
Standard stocks of HPV 11 were used as undiluted virus. These virus stocks normally induce Condylomata in 90-100% of infected xenografts when diluted 1000 fold. […] Infection was then carried out for 1 hr and the grafts subsequently transplanted in vivo. Eight animals (16 kidneys) received grafts infected with SDS treated virus and 9 animals (17 kidneys) received normal virus. […] In the normal infections, 17 of 17 grafts survived and of these, 14 were transformed morphologically upon histologic examination and had typical papillomatous appearance.

[4] = tested on: HSV-2 (strain 333); test: HSV-2 inactivation assay (plaques on CV-1 monolayers); type: cell-based, herpes simplex virus; conditions: 37° C. 10 min, virus then diluted 100 fold
Description: HSV-2 (strain 333) virus stocks were propagated by low multiplicity infection of African Green monkey kidney (CV-1) cells and subsequent preparation of cell-free supernatants from frozen and thawed preparations of lytically infected cultures. Virus titers were determined by assay in CV-1 cell monolayers. Virus stocks were maintained in CV-1 cell culture medium which was Dulbecco's medium supplemented with antibiotics and 10% fetal calf serum.
For inactivation of HSV-2, 39 μl of virus was mixed with 1 μl of a 40×concentrated solution of detergent and then incubated at 37° C. for 10 min. After inactivation, the 40 μl of virus sample was diluted to 4 ml (1:100) using cell culture medium, and 1 ml of the diluted virus was adsorbed onto CV-1 monolayers for 1 hr at 37° C. Following adsorption, monolayers were refed and incubated at 37° C., 5% CO2. Between 20 and 24 hr post infection, monolayers were fixed, stained with crystal violet and plaques counted using a dissecting microscope. The numbers in Table 1 each represent an average of 2 plates.

[5] = tested on: HSV-2; test: Protection of mice from vaginal infection with live HSV-2; type: in vivo, herpes simplex virus; conditions: Swiss-Webster mice
Description: The following data represent an in vivo experiment to test both the toxicity and the efficacy of SDS in the protection of mice from vaginal infection with live herpes simplex virus (HSV-2).
The experiment used outbred, female, Swiss-Webster mice. Mice were anesthetized and then SDS or control solutions (25μl ) was instilled into the vagina using a yellow pipette tip. The SDS was not formulated into a vaginal cream or foam but merely dissolved into phosphate buffered saline. These solutions have low viscosity. Fluids were instilled into groups of 10 mice at one time. Following administration of SDS or control solutions to the group of 10, then an additional 25 μof virus or control fluid was instilled. Mice were allowed to recover from the anesthesia and then the mice were checked daily for symptoms, beginning on day three and until 12 days after inoculation. Vaginal swabs were also performed on the mice on a daily basis, beginning on day three, in order to determine shedding of virus. FIGS. 3A-3G show the total symptoms per group on days 3 through 12 for each of the following symptoms: swelling, vaginal exudate, redness, death, leg paralysis, perianal hair loss and any symptom.

[6] = tested on: split thickness grafts of neonatal foreskin; test: SDS exposure and viability of human foreskin xenografts; type: in vivo; conditions: 0.05% SDS, no virus; immediately and days 1, 5, 11 and 20
Description: A second set of control grafts was exposed only to identical concentrations of SDS and no virus. These grafts were harvested on days 1, 5, 11 and 20 following transplantation in order to follow the viability and growth of the grafts after SDS exposure.
Because of concern about the potential for SDS to kill human epithelium, control experiments were performed in which split thickness grafts of neonatal foreskin were exposed to 0.05% SDS alone and then subsequently grafted. All conditions in this experiment were identical to those used in the HPV 11 infections with treated virus, except that virus was not present. SDS-exposed grafts (2 animals at each time) were harvested, fixed and sectioned immediately after exposure, and on days 1, 5, 11 and 20 after treatment. […] The original split thickness grafts were approximately 1 mm×1 mm×1 mm in size; in addition they were punctured many times with the tip of a needle in order to allow entrance of the HPV 11 and/or the SDS into the epithelial layers. Although it is possible that some epithelial cells may have been damaged or killed during SDS exposure, damage was minimal and epithelial growth in the grafts was normal.

[7] = 0.025 % SDS during treatment (as printed in Table 5), grafts harvested after three months
[8] = undiluted HPV 11 treated with 0.05% SDS, 37° C. 10 min

With `CCCCCCCCCCCCOS(=O)(=O)[O-].[Na+]` [SDS, Sodium dodecyl sulfate] the “Bovine Sperm Motility Following Detergent Addition” value ([1]; Table 8, 0.0125% detergent) was “+/−”, the “timing of sperm inactivation” value ([1]; Table 8, 0.0125% detergent, delayed = approximately 10 minutes) was “(delayed)” and the “Bovine Sperm Motility Following Detergent Addition” value ([1]; Table 8, 0.025% detergent) was “−”. The “Bovine Sperm Motility Following Detergent Addition” value ([1]; Table 8, 0.5% detergent) was “−”, the “Bovine Sperm Motility Following Detergent Addition” value ([1]; Table 8, 1% detergent) was “−” and the “Bovine Sperm Motility Following Detergent Addition” value ([1]; Table 8, 2% detergent) was “−”. The “Bovine Sperm Motility Following Detergent Addition” value ([1]; Table 9, 0.125% detergent) was “++/−”, the “Bovine Sperm Motility Following Detergent Addition” value ([1]; Table 9, 0.25% detergent) was “++/−” and the “Bovine Sperm Motility Following Detergent Addition” value ([1]; Table 9, 0.5% detergent) was “++/−”. For the same molecule, the “Bovine Sperm Motility Following Detergent Addition” value ([1]; Table 9, 1% detergent) was “++/−”, the “Bovine Sperm Motility Following Detergent Addition” value ([1]; Table 9, 2% detergent) was “+/−” and the “development of papillomas at the six sites that received SDS treated preparations (FIG. 1b)” value ([2]; 10^−1 dilution of virus stock, 10 min, 37° C., rabbits) was “delayed in the development of papillomas”. The “inactivation of CRPV (GMD of lesions, FIG. 1a)” value ([2]; 10^−1 dilution of virus stock, 10 min, 37° C., rabbits, days 18-50) was “substantially inactivated”, the “sites inoculated with treated virus in which papillomas failed to develop” value ([2]; 10^−2 dilution of CRPV stock, 37° C. 10 min, five rabbits, 3-6 weeks) was 8 of 10 and the “surviving grafts/ transplanted grafts” value [3, 7] was 13/16. For the same molecule, the total papillomas [3, 7] was 0, the “prevention of HPV 11 infection of xenografts” value [3, 8] was “effectively prevented virus infection” and the “xenografts showing viable tissue at harvest (normal, viable differentiating human epithelium)” value [3, 8] was 13 out of 16. The “Plaques/Plate (5 experiments)” value ([4]; 1 × 10^−1 % SDS during treatment) was 0/0/0/0/0, the “Plaques/Plate (5 experiments)” value ([4]; 1.25 × 10^−2 % SDS during treatment) was 0/0/0/0/0 and the “Plaques/Plate (5 experiments)” value ([4]; 2.5 × 10^−2 % SDS during treatment) was 0/0/0/0/0. For the same molecule, the “Plaques/Plate (5 experiments)” value ([4]; 2.5 × 10^−3 % SDS during treatment) was 28/54/322/145/104, the “Plaques/Plate (5 experiments)” value ([4]; 5 × 10^−2 % SDS during treatment) was 0/0/0/0/0 and the “protection from HSV-2 inoculation of the vagina, dose response” value ([5]; 4% SDS) was “most protection”. The “protection from HSV-2 inoculation of the vagina (symptoms days 3-12)” value ([5]; all concentrations of SDS (0.5%, 1%, 2%, 4%) in PBS, 25 μl intravaginal) was “significant protection” and the “viability of grafts exposed to SDS alone (histology)” value [6] was “fully viable epithelium on all days and no apparent necrosis”.
